Results reported in patent US20130171278A1 (priority 2010, published 2013).

What was measured:
[1] = system: scopolamine-induced memory deficit rat model; assay: Passive avoidance test in scopolamine-induced memory deficit model; assay type: in vivo; conditions: 24 hrs after shock
Procedure: (§1) Ethology test such as passive avoidance test and radial maze test were performed for Artemisia apiaceae. In the case of passive avoidance test, the control group, the scopolamine-treated group (3 mg/kg, i.p.), the tacrine-treated group after scopolamine treatment (10 mg/kg p.o.) and the Artemisia apiaceae extract-treated group were shocked. After 24 hrs, entering time to dark chamber (step-through latency, STL) was measured. […] Furthermore, in order to verify enhancement in more specific learning ability, acquisition test in which an error frequency is measured was performed using 8-arm radial maze.

scopolamine-treated rat = assay: 8-arm radial maze acquisition test in scopolamine-treated animals; assay type: in vivo
Procedure: as §1

Row | SMILES | entering time into the dark chamber (step-through latency, STL) ([1]; scopolamine 3 mg/kg i.p., compared with the control group) | entering time into the dark chamber (step-through latency, STL) ([1]; tacrine 10 mg/kg p.o. after scopolamine treatment) | error frequency compared with the scopolamine-treated group (scopolamine-treated rat) | error frequency (scopolamine-treated rat; normal group 1.6, negative control group 3.25)
1 | CN1[C@@H]2C[C@@H](OC(=O)[C@H](CO)c3ccccc3)C[C@H]1[C@@H]1O[C@@H]12 [scopolamine] | significantly decreased entering time into the dark chamber |  |  | 
2 | Nc1c2c(nc3ccccc13)CCCC2 [tacrine] |  | significantly increased entering time into the dark chamber | significantly decreased error frequency | 1.75
